# Laboratory results from patent US3959468A, “Antibiotic equisetin and method of production” (The United States of America as represented by the …, priority 1974, dated 1976).
# Like-named read-outs stand apart in the source and are kept apart here.
# Key:
# physchem = format: physicochemical
# Protocol: Melting points (uncorrected) were determined with a Fisher-Johns apparatus. Infrared spectra were obtained on a Beckman Model 1R-8 spectrophotometer from films deposited on KRS-5 plates (Wilks, Inc.) or from solutions in a 1-mm. sodium chloride cell. Mass spectra were obtained on a Nuclide high-resolution instrument Model 12-90G. Ultraviolet spectra were recorded from a Beckman DG-G with the absolute ethanol solutions of antibiotic at 25 μg./ml. Elemental analysis was carried out in a Perkin-Elmer CHN analyzer 240. Solubilities were measured by the procedure of Shriner et al. [The Systematic Identification of Organic Compounds. A Laboratory Manual, John Wiley and Sons., Inc., New York].
# Neisseria perflava = experiment: Minimum inhibitory concentration, agar streak test on TGY agar (N. perflava); format: cell-based
# Protocol: (§1) Minimum inhibitory concentrations for microorganisms. The F. equiseti NRRL 5537 antibiotic was diluted in ethanol. Streptomycin sulfate and isoniazid were diluted in water. Amounts up to 1 ml. were added to TGY agar to provide the desired double dilution test concentrations. Minimum inhibitory concentrations of the antimicrobial agents were determined by streaking a loopful of standardized suspensions of 24- to 48-hr. cultures of selected microorganisms onto the surface of 20 ml. of the modified TGY agar in a standard petri dish. Microorganisms were cultured on TGY agar slants and diluted with TGY broth to yield a transmittance of about 90% at 600 nm. in a Spectronic-20 spectrophotometer. All cultures grew on control plates containing 1 ml. ethanol per 100 ml. TGY agar. Bacteria were incubated at 37° C. and the fungi at room temperature.
# gram-negative bacteria = experiment: Minimum inhibitory concentration, agar streak test on TGY agar (other gram-negative bacteria); format: cell-based; conditions: Neisseria perflava; tested gram-negative bacteria other than N. perflava; read-out: no inhibition at levels up to
# Protocol: as §1
# Staphylococcus aureus = experiment: Minimum inhibitory concentration, agar streak test on TGY agar (S. aureus); format: cell-based
# Protocol: as §1
# Bacillus subtilis = experiment: Minimum inhibitory concentration, agar streak test on TGY agar (B. subtilis); format: cell-based
# Protocol: as §1
# [1] = tested on: some gram-positive bacteria and N. perflava; experiment: Comparison of MIC of equisetin with streptomycin and isoniazid; format: cell-based; conditions: in vitro, tested bacteria
# Protocol: as §1
# M. rhodochrus = experiment: Minimum inhibitory concentration, agar streak test on TGY agar (M. rhodochrus); format: cell-based; conditions: NRRL B-2141, 37° C., 24 and 48 hr., read-out: Antimicrobial agent MIC
# Protocol: as §1
# fungi = experiment: Minimum inhibitory concentration, agar streak test on TGY agar (fungi); format: cell-based; conditions: tested fungi; room temperature; read-out: no inhibition at levels up to
# Protocol: as §1
# Mycobacterium phlei = experiment: Minimum inhibitory concentration, agar streak test on TGY agar (M. phlei); format: cell-based; conditions: Mycolicibacterium phlei
# Protocol: as §1
# in vivo = experiment: in vivo; design: species or system Swiss-Webster female mice; conditions: mouse, in vivo, ip; intraperitoneal, propylene glycol, 25 g. Swiss-Webster female mice; read-out: intraperitoneal LD50 dose
# Protocol: (§2) Animal toxicity. Chromatographically pure antibiotic was dissolved in warm propylene glycol and injected intraperitoneally into 25 g. Swiss-Webster female mice. The LD50 dose was calculated by Weil's procedure (supra) with the following notation: K = 3; n = 6; r = 0, 1, 6, 6; d = 0.3010; and Da = 25 mg./kg. body weight.
# mice = experiment: in vivo; design: species or system Swiss-Webster female mice; conditions: for r (Weil's procedure notation): n = 6, Da = 25 mg./kg.
# Protocol: as §2
# [2] = format: physicochemical; conditions: for degradation peak, share of the sample: short columns (2 ft.)
# Protocol: Gas-liquid chromatography of F. equiseti NRRL 5537 preparations was carried out on a Bendix Model 2500 chromatograph equipped with on-column flame ionization detectors. Retention times of the antibiotic and its degradation product were determined on glass columns (2 ft. × 2 mm. and 6 ft. × 2 mm.) packed with SE-30 (3%) on Supelcon AW-DMCS (Supelco, Inc.). Operating parameters were: temperature, 180° or 190° C. isothermally for 2-ft. columns and programmed from 180° to 220° C. at 5° C./min. for 6-ft. columns; carrier gas, nitrogen (40 ml./min.); hydrogen (20 ml./min.); air (400 ml./min.); injection ports and detectors, 250° C. Samples were dissolved in absolute ethanol (10 mg./ml.), and 2 μl. were used for analyses. Peak areas and retention times were obtained with a Hewlett/Packard Model 3370 B integrator.
# M. smegmatis = experiment: Minimum inhibitory concentration, agar streak test on TGY agar (M. smegmatis); format: cell-based; conditions: Mycolicibacterium smegmatis, NRRLB612, NRRL B-612, 37° C., 24 and 48 hr., read-out: Antimicrobial agent MIC
# Protocol: as §1
# bacteria = conditions: cited from earlier work
# [3] = seven strains, read-out: concentration at which strains were inhibited
# [4] = NRRLB543, NRRL B-543, TGY agar, 37° C., 24 and 48 hr., read-out: Antimicrobial agent MIC
# [5] = NRRLB609, NRRL B-609, TGY agar, 37° C., 24 and 48 hr., read-out: Antimicrobial agent MIC
# [6] = NRRLB610, NRRL B-610, TGY agar, 37° C., 24 and 48 hr., read-out: Antimicrobial agent MIC
# [7] = NRRLB4051, NRRL B-4051, TGY agar, 37° C., 24 and 48 hr., read-out: Antimicrobial agent MIC
# [8] = 100 or 200 mg./kg. intraperitoneal
smiles,measurement,setting,value
CC=CC1C=CC2CC(C)CCC2C1(C)C(O)=C1C(=O)C(CO)N(C)C1=O (stereo not shown) [equisetin],solubility,"physchem; acetone, organic solvent or mixture, read-out: solubility in acetone",> 660 mg/mL
same,solubility,"physchem; ethanol, organic solvent or mixture, read-out: solubility in ethanol",> 330 mg/mL
same,solubility,"physchem; methanol, organic solvent or mixture, read-out: solubility in methanol",> 220 mg/mL
same,solubility,"physchem; organic solvent or mixture, hexane, insoluble, read-out: solubility in hexane",< 0.8 mg/mL
same,solubility,"physchem; water, insoluble, read-out: solubility in water",< 0.3 mg/mL
same,MIC,"Neisseria perflava; NRRLB1458, NRRL B-1458, TGY agar, 37° C., 24 and 48 hr., read-out: Antimicrobial agent MIC",2 µg/mL
same,MIC,"Neisseria perflava; NRRLB1788, NRRL B-1788, TGY agar, 37° C., 24 and 48 hr., read-out: Antimicrobial agent MIC",2 µg/mL
same,MIC,"Neisseria perflava; NRRLB1789, NRRL B-1789, TGY agar, 37° C., 24 and 48 hr., read-out: Antimicrobial agent MIC",4 µg/mL
same,MIC,"Neisseria perflava; NRRLB1790, NRRL B-1790, TGY agar, 37° C., 24 and 48 hr., read-out: Antimicrobial agent MIC",1 µg/mL
same,MIC,"Neisseria perflava; NRRLB1791, NRRL B-1791, TGY agar, 37° C., 24 and 48 hr., read-out: Antimicrobial agent MIC",4 µg/mL
same,MIC,gram-negative bacteria,> 128 µg/mL
same,MIC,"Staphylococcus aureus; NRRLB120, NRRL B-120, TGY agar, 37° C., 24 and 48 hr., read-out: Antimicrobial agent MIC",1 µg/mL
same,MIC,"Staphylococcus aureus; NRRLB124, NRRL B-124, TGY agar, 37° C., 24 and 48 hr., read-out: Antimicrobial agent MIC",1 µg/mL
same,MIC,"Staphylococcus aureus; NRRLB313, NRRL B-313, TGY agar, 37° C., 24 and 48 hr., read-out: Antimicrobial agent MIC",0.5 µg/mL
same,MIC,"Staphylococcus aureus; NRRLB678, NRRL B-678, TGY agar, 37° C., 24 and 48 hr., read-out: Antimicrobial agent MIC",1 µg/mL
same,MIC,"Staphylococcus aureus; NRRLB1317, NRRL B-1317, TGY agar, 37° C., 24 and 48 hr., read-out: Antimicrobial agent MIC",1 µg/mL
same,MIC,"Staphylococcus aureus; NRRLB1318, NRRL B-1318, TGY agar, 37° C., 24 and 48 hr., read-out: Antimicrobial agent MIC",1 µg/mL
same,MIC,"Staphylococcus aureus; NRRLB2746, NRRL B-2746, TGY agar, 37° C., 24 and 48 hr., read-out: Antimicrobial agent MIC",1 µg/mL
same,MIC,Staphylococcus aureus; [3],≤ 1 µg/mL
same,MIC,Bacillus subtilis; [4],0.5 µg/mL
same,MIC,"Bacillus subtilis; NRRLB558, NRRL B-558, TGY agar, 37° C., 24 and 48 hr., read-out: Antimicrobial agent MIC",0.5 µg/mL
same,MIC,"Bacillus subtilis; NRRLB644, NRRL B-644, TGY agar, 37° C., 24 and 48 hr., read-out: Antimicrobial agent MIC",0.5 µg/mL
same,MIC,"Bacillus subtilis; NRRLB765, NRRL B-765, TGY agar, 37° C., 24 and 48 hr., read-out: Antimicrobial agent MIC",0.5 µg/mL
same,MIC,"Bacillus subtilis; NRRLB972, NRRL B-972, TGY agar, 37° C., 24 and 48 hr., read-out: Antimicrobial agent MIC",0.5 µg/mL
same,MIC,"Bacillus subtilis; NRRLB1650, NRRL B-1650, TGY agar, 37° C., 24 and 48 hr., read-out: Antimicrobial agent MIC",1 µg/mL
same,MIC,"Bacillus subtilis; NRRLB3284, NRRL B-3284, TGY agar, 37° C., 24 and 48 hr., read-out: Antimicrobial agent MIC",1 µg/mL
same,MIC,Bacillus subtilis; [3],≤ 1 µg/mL
same,comparison of minimum inhibitory concentrations with streptomycin and isoniazid,[1],a lower concentration of equisetin were required for the in vitro inhibition of the tested bacteria than was required for inhibition by streptomycin or isoniazid
same,MIC,M. rhodochrus,0.5 µg/mL
same,MIC,fungi,> 128 µg/mL
same,MIC,Mycobacterium phlei; [5],1 µg/mL
same,MIC,Mycobacterium phlei; [6],1 µg/mL
same,MIC,Mycobacterium phlei; [7],2 µg/mL
same,MIC,"Mycobacterium phlei; two of three strains, read-out: concentration at which strains were inhibited",≤ 1 µg/mL
same,LD50,in vivo,63 mg/kg
same,visible ill effects in surviving mice,"mice; 25- or 50-mg./kg. doses intraperitoneal, 4 wk. of observation",no visible ill effects
same,condition of mice,mice; [8],lethargic
same,"mortalities continued for, post-injection",mice; [8],4 da.
same,time of death,mice; [8],death did not occur before the second day after treatment
same,r (Weil's procedure notation),"mice; first r, d = 0.3010 (25 mg./kg.)",0
same,r (Weil's procedure notation),"mice; fourth r, d = 0.3010 (200 mg./kg.)",6
same,lethal action,"mice; intraperitoneal, mice",Lethal action was slow
same,r (Weil's procedure notation),"mice; second r, d = 0.3010 (50 mg./kg.)",1
same,r (Weil's procedure notation),"mice; third r, d = 0.3010 (100 mg./kg.)",6
same,antibiotic converted to the degradation product,"[2]; 6-ft. columns, 220° C.",almost half
same,"degradation peak, share of the sample",[2]; 180° C.,3%
same,"degradation peak, share of the sample",[2]; 190° C.,6-8%
same,MIC,M. smegmatis,8 µg/mL
NNC(=O)c1ccncc1 [Isoniazid],MIC,"Neisseria perflava; N. perflava strains, Table 1 footnote 1 (explains the dashes), read-out: not inhibited by (isoniazid per ml. medium)",> 128 µg/mL
same,MIC,"Staphylococcus aureus; S. aureus strains, Table 1 footnote 1 (explains the dashes), read-out: not inhibited by (isoniazid per ml. medium)",> 128 µg/mL
same,MIC,"Bacillus subtilis; B. subtilis strains, Table 1 footnote 1 (explains the dashes), read-out: not inhibited by (isoniazid per ml. medium)",> 128 µg/mL
same,MIC,Bacillus subtilis; [4],128 µg/mL
same,MIC,M. rhodochrus,64 µg/mL
same,MIC,Mycobacterium phlei; [5],4 µg/mL
same,MIC,Mycobacterium phlei; [6],4 µg/mL
same,MIC,Mycobacterium phlei; [7],4 µg/mL
same,MIC,M. smegmatis,4 µg/mL
C[C@H]1CCCC(=O)CCC/C=C/c2cc(O)cc(O)c2C(=O)O1 [zearalenone],antibacterial properties,bacteria,either lack or only exhibit weak antibacterial properties
